{
  "source": "patent US20130203668A1",
  "about": "“PHARMACEUTICAL COMPOSITION COMPRISING ANTIPLATELET AGENTS AND AN ERYTHROPOIESIS STIMULATING AGENT” (CADILA HEALTHCARE LIMITED, priority 2010, published 2013)",
  "key": {"[1]": {"system": "platelet rich plasma (PRP)", "assay": "Effect of clopidogrel and aspirin on rHuEPO-induced platelet reactivity, ex vivo platelet aggregation", "assay_type": "in vivo, male Wistar rats", "settings": "for Effect on platelet aggregatory response in rHuEPO treated rats (in words): rHuEPO (25 μg/kg, S.C.) treated rats, clopidogrel 2.5 mg/kg p.o., aspirin 75 mg/kg p.o.; for % platelet aggregation: rHuEPO 25 μg/kg s.c., Clopidogrel 2.5 mg/kg p.o., Aspirin 75 mg/kg p.o.", "description": "(§1) Six to eight week old male Wistar rats used and the methods and procedures described here have been reviewed and approved by the Institutional Animal Ethics Committee (IAEC). Wistar male rats were divided in groups [each group containing 6 animals (n=6)]. Control animal received vehicle only (0.9% w/v NaCl normal saline), treatment groups received three consecutive doses of Recombinant Human Erythropoietin (25 and 50 μg/kg, s.c.) at an interval of 24 hour. Blood collection was performed at 48 hour after the last injection of Erythropoietin in citrated tubes. Platelet rich plasma (PRP) was separated. Determination of ex-vivo platelet aggregation was performed by using 1) ADP as aggregation inducing agent 2) Arachidonic acid as aggregation inducing agent 3) Thrombin as aggregation inducing agent and 4) Collagen as aggregation inducing agent. Platelet aggregation was performed by turbidometric method using high through put 96-well plate. Optical density was measured at 405 nm by Spectra Max plate reader. […] Increase in platelet aggregatory response meaning increase in platelet reactivity when same concentration of aggregating agent is used.\nSix to eight week old male Wistar rats were divided in groups [each group containing 6 animals (n=6)]. Control animal received vehicle only (0.9% w/v NaCl normal saline), treatment groups received three consecutive doses of Recombinant Human Erythropoietin (25 μg/kg, s.c.) at an interval of 24 hour. Aspirin (75 mg/kg p.o.), and Clopidogrel (2.5 mg/kg, p.o.) were dosed individually and in combination with each other to respective groups at 48 hour after the last injection of erythropoietin. Blood collection was performed after 2 hours of antiplatelet treatment. Platelet rich plasma (PRP) was separated. Determination of ex-vivo platelet aggregation was performed by using 1) ADP as aggregation inducing agent 2) Arachidonic acid as aggregation inducing agent 3) Thrombin as aggregation inducing agent and 4) Collagen as aggregation inducing agent."}, "[2]": {"assay": "Hematological parameters in 5/6 nephrectomized rats (chronic kidney disease model)", "assay_type": "in vivo, male Wistar rats", "settings": "i.v. 3 times a week for 4 weeks; for Hematocrit (%) Average / Hemoglobin (g/dL) Average / RBC count (10^6/μL) Average: 5/6 nephrectomized rats, EPO 500 IU/kg, Clopi 10 mg/kg", "text": "(§2) Six to eight week old male Wistar rats used and the methods and procedures described here have been reviewed and approved by the Institutional Animal Ethics Committee (IAEC). We used human therapeutic dose of rHuEPO in rats and same frequency of administration as in humans (Kirkeby A et al., Thromb Haemost, 2008; 99:720-728). A 5/6 nephrectomy has been performed on male wistar rats (Toba H et al., European Journal of Pharmacology 656, 2011, 81-87) and treatment has been started after one month of nephrectomy.\n(§3) The rats were divided into 5 groups (n=6): 1) a control group, which received a sham operation (SHAM control); 2) a 5/6 nephrectomized group (NPX), removed the upper and lower poles of the left kidney and after one week the entire right kidney under anesthesia (NPX vehicle); 3) a 5/6 nephrectomy+rHuEPO group, nephrectomized and injected with rHuEPO at 500 IU/kg 3 times a week intravenously (i.v.) for 4 weeks (NPX+EPO); 4) a 5/6 nephrectomized+rHuEPO+clopidogrel group, nephrectomized and administered with rHuEPO (500 IU/kg)+clopidogrel (10 mg/kg) every 3 times a week intravenously (i.v.) for 4 weeks. 5) a 5/6 nephrectomized+clopidogrel group, nephrectomized and administered with rHuEPO (500 IU/kg)+clopidogrel (10 mg/kg) every 3 times a week intravenously (i.v.) for 4 weeks.\n(§4) After 4 weeks of treatment, blood samples were collected via retro-orbital route in tubes containing 3.8% tri-sodium citrate for the collection of platelet rich plasma (PRP) for ADP-induced platelet aggregation studies. Blood samples were also collected for hematological analysis in tubes containing 5% EDTA. Serum samples were used for measurement of various kidney biomarkers such as creatinine, urea, uric acid, blood urea nitrogen and total protein."}, "[3]": {"system": "platelet rich plasma (PRP)", "assay": "Ex vivo ADP-induced platelet aggregation in 5/6 nephrectomized rats (chronic kidney disease model)", "set-up": "species or system male Wistar rats", "settings": "i.v. 3 times a week for 4 weeks; for Platelet aggregation (%) Average: 2.5 μM ADP, 5/6 nephrectomized rats, EPO 500 IU/kg, Clopi 10 mg/kg", "text": "as §2, §3, §4\nIncrease in platelet aggregatory response meaning increase in platelet reactivity when same concentration of aggregating agent is used."}, "[4]": {"assay": "Bleeding time, tail transaction test", "assay_type": "in vivo, male Wistar rats", "settings": "rHuEPO 25 μg/kg s.c., Clopidogrel 2.5 mpk, Aspirin 75 mpk; Wistar rats", "description": "Six to eight week old male Wistar rats were divided in groups [each group containing 6 animals (n=6)]. Control animal received vehicle only (0.9% w/v NaCl normal saline), treatment groups received three consecutive doses of Recombinant Human Erythropoietin (25 μg/kg, S.C.) at an interval of 24 hour. Aspirin (75 mg/kg p.o.), and Clopidogrel (2.5 mg/kg, p.o.) individually and in combination with each other were dosed to respective groups at 48 hour after the last injection of Erythropoietin. Bleeding time experiment using tail transaction test was performed."}, "[5]": {"assay": "Kidney biomarkers in serum of 5/6 nephrectomized rats (chronic kidney disease model)", "assay_type": "in vivo, male Wistar rats", "settings": "i.v. 3 times a week for 4 weeks", "text": "as §2, §3, §4\nThere was increase in the serum creatinine, serum urea, serum uric acid, blood urea nitrogen and decrease in serum total protein in nephrectomized animals. […] There was improvement in the kidney function when combination of rHuEPO and antiplatelet agent has been given every 3 times a week intravenously (i.v.) for 4 weeks in nephrectomized rats (FIGS. 6a, 6b, 6c, 6d and 6e)."}, "[6]": {"system": "platelet rich plasma (PRP)", "assay": "Effect of rHuEPO on platelet reactivity, ex vivo platelet aggregation (ADP, arachidonic acid, thrombin, collagen)", "assay_type": "in vivo, male Wistar rats", "settings": "for % platelet aggregation: s.c. treated rats", "description": "as §1"}, "[7]": {"settings": "5/6 nephrectomized rats, EPO 500 IU/kg, Clopi 10 mg/kg"}},
  "data": [
    {"compound": "CC(=O)Oc1ccccc1C(=O)O", "note": "[Aspirin, reference compound]", "values": [
      {"measurement": "Effect on platelet aggregatory response in rHuEPO treated rats (in words)", "setting": "[1]", "value": "further normalizes the hyper reactive platelets"}
    ]},
    {"compound": "COC(=O)[C@H](c1ccccc1Cl)N1CCc2sccc2C1", "note": "[Clopidogrel, reference compound]", "values": [
      {"measurement": "Effect on platelet aggregatory response in rHuEPO treated rats (in words)", "setting": "[1]", "value": "platelet aggregatory response is normalized"},
      {"measurement": "Hematocrit (%) Average", "setting": "[2]", "value": 46.07, "unit": "%"},
      {"measurement": "Hemoglobin (g/dL) Average", "setting": "[2]", "value": 14.77, "unit": "g/dL"},
      {"measurement": "RBC count (10^6/μL) Average", "setting": "[2]", "value": "8.52 10^6/μL"},
      {"measurement": "Platelet aggregation (%) Average", "setting": "[3]", "value": "−2", "unit": "%"}
    ]},
    {"compound": "Recombinant Human Erythropoietin [rHuEPO]", "values": [
      {"measurement": "Bleeding Time", "setting": "[4]", "value": "165 ± 28.1", "unit": "s"},
      {"measurement": "% platelet aggregation", "setting": "[1]; ADP (1.25 μM), blood 2 h after antiplatelet treatment", "value": "59.5 ± 1.4", "unit": "%"},
      {"measurement": "% platelet aggregation", "setting": "[1]; Arachidonic acid (150 μM)", "value": "44.4 ± 2.5", "unit": "%"},
      {"measurement": "% platelet aggregation", "setting": "[1]; Collagen (0.25 μg/ml)", "value": "60.03 ± 1.9", "unit": "%"},
      {"measurement": "% platelet aggregation", "setting": "[1]; Thrombin (0.025 IU/ml)", "value": "70.8 ± 1.0", "unit": "%"},
      {"measurement": "Hematocrit (%) Average", "setting": "[2]", "value": 62.3, "unit": "%"},
      {"measurement": "Hemoglobin (g/dL) Average", "setting": "[2]", "value": 20.4, "unit": "g/dL"},
      {"measurement": "RBC count (10^6/μL) Average", "setting": "[2]", "value": "11.13 10^6/μL"},
      {"measurement": "Effect on hematological parameters (in words)", "setting": "[2]; nephrectomized rats", "value": "increase in RBC count, hemoglobin and hematocrit"},
      {"measurement": "Blood urea nitrogen mg/dL Average", "setting": "[5]; [7]", "value": 64.33, "unit": "mg/dL"},
      {"measurement": "Serum creatinine mg/dL Average", "setting": "[5]; [7]", "value": 0.74, "unit": "mg/dL"},
      {"measurement": "Serum urea mg/dL Average", "setting": "[5]; [7]", "value": 134.33, "unit": "mg/dL"},
      {"measurement": "Serum uric acid mg/dL Average", "setting": "[5]; [7]", "value": 1.4, "unit": "mg/dL"},
      {"measurement": "Total protein g/dL Average", "setting": "[5]; [7]", "value": 6.13, "unit": "g/dL"},
      {"measurement": "Effect on kidney function / kidney biomarkers (in words)", "setting": "[5]; nephrectomized rats", "value": "further increase in the serum creatinine, serum urea, serum uric acid, blood urea nitrogen"},
      {"measurement": "Platelet aggregation (%) Average", "setting": "[3]", "value": 55, "unit": "%"},
      {"measurement": "Effect on platelet aggregatory response in nephrectomized rats (in words)", "setting": "[3]; ADP, rHuEPO 500 IU/kg, clopidogrel 10 mg/kg", "value": "platelet aggregation increases"},
      {"measurement": "% platelet aggregation", "setting": "[6]; ADP (1.25 μM), rHuEPO 25 μg/kg, 3 doses, blood 48 h after last dose", "value": "59.1 ± 3.2", "unit": "%"},
      {"measurement": "% platelet aggregation", "setting": "[6]; ADP (1.25 μM), rHuEPO 50 μg/kg, 3 doses, blood 48 h after last dose", "value": "66.4 ± 4.5", "unit": "%"},
      {"measurement": "% platelet aggregation", "setting": "[6]; Arachidonic acid (150 μM), rHuEPO 25 μg/kg", "value": "50.6 ± 3.1", "unit": "%"},
      {"measurement": "% platelet aggregation", "setting": "[6]; Arachidonic acid (150 μM), rHuEPO 50 μg/kg", "value": "61.3 ± 3.4", "unit": "%"},
      {"measurement": "% platelet aggregation", "setting": "[6]; Collagen (0.25 μg/ml), rHuEPO 25 μg/kg", "value": "30.5 ± 2.0", "unit": "%"},
      {"measurement": "% platelet aggregation", "setting": "[6]; Collagen (0.25 μg/ml), rHuEPO 50 μg/kg", "value": "45.9 ± 3.2", "unit": "%"},
      {"measurement": "% platelet aggregation", "setting": "[6]; Collagen (0.5 μg/ml), rHuEPO 25 μg/kg", "value": "56.9 ± 1.7", "unit": "%"},
      {"measurement": "% platelet aggregation", "setting": "[6]; Collagen (0.5 μg/ml), rHuEPO 50 μg/kg", "value": "65.9 ± 1.7", "unit": "%"},
      {"measurement": "% platelet aggregation", "setting": "[6]; Thrombin (0.0125 IU/ml), rHuEPO 25 μg/kg", "value": "37.7 ± 3.0", "unit": "%"},
      {"measurement": "% platelet aggregation", "setting": "[6]; Thrombin (0.0125 IU/ml), rHuEPO 50 μg/kg", "value": "59.5 ± 4.4", "unit": "%"},
      {"measurement": "Effect on platelet aggregation (in words)", "setting": "[6]; rHuEPO 25 and 50 μg/kg, s.c., constant concentration of aggregating agents", "value": "causes increase in platelet aggregation"}
    ]}
  ]
}
